From patent US10729710B2, “Catecholamine prodrugs for use in the treatment of Parkinson's disease” (H. Lundbeck A/S, priority 2017, dated 2020)
Where a name gives a salt, the structure may show the parent alone.

How the values were obtained:
male CD rats = test: Rat locomotor activity (hyperactivity) assay, open field; type: in vivo; conditions: for time until locomotor effect is gone: apomorphine: post administration, pramipexole: after appearance of effect, (Id-ia): recording ended at 415-minute time point
Method: In total, 206 male CD rats (Charles River, Germany) weighing 200-250 grams (165-190 grams upon arrival) were used in the study. Animals were housed at a standard temperature (22±1° C.) and in a light-controlled environment (lights on from 7 am to […]) with ad libitum access to food and water. The experiment described below was performed in accordance with the standard operating procedures of Charles River Discovery Research Services Finland Ltd. and in accordance with the national Animal Experiment Board of Finland (Eläinkoelautakunta, ELLA) authority on animal testing.
The test device is a square Plexiglass-arena (measuring 40×40×40 cm), in which the movement paths of the rats are recorded by an activity monitor (Med. Associates Inc.). Before the test period is initiated, rats are habituated to their test cage for 60 minutes. Upon completion of habituation, animals were treated with either compound or vehicle and placed back into the open field apparatus. The main test parameter measured is ambulatory distance (recorded in 5 minute segments). Overall time of measurement after receiving initial treatment was 360 minutes. Total follow up period in the study was 420 min, including 60 min of habituation.

[1] = Conversion to compound (I) in fresh rat blood; type: in vitro ADME; conditions: fresh blood 37° C., 1 μg/mL, 0-60 minutes, FIG. 8a
Method: (§1) Conversion of (Id-ia), (Id-ib), (Id-iia) and (Id-iib) in human blood (average of 3 donors) and rat blood (average of 45 donors) to (I) was shown in fresh blood at 37° C. spiked with 1 μg/mL of (Id-ia), (Id-ib), (Id-iia) and (Id-iib) separately, (I) was measured at 0, 5, 15, 30 and 60 minutes in isolated plasma. Analysis method and Instrumentation as described in Examples 4 and 5 below in the section “Instrumentation used for analysis of compound (I) from dosing of compounds (Ic), (Id-ia), (Id-ib), (Id-iia), (Id-iib), (Id-iab) and (Id-iiab).”

hepatocytes from human = test: Conversion to compound (I) in human hepatocytes; type: in vitro ADME; conditions: 1 μg/mL, 37° C., 0.25-60 minutes, FIG. 7b
Method: (§2) The cell concentration at incubation was 1×10^6 viable cells/mL. The incubations were performed in glass tubes at 37° C. with a total incubation volume of 3.5 mL and with duplicate incubations for each test item. The 3.5 mL of hepatocyte suspension was equilibrated for 10 minutes in a water bath set to 37° C. where after the incubations were initiated by adding 3.5 μL of a stock solution of the test item in DMSO (Dimethyl sulfoxide) and gently inverting the tubes. The final solvent concentration in the incubations was 0.1% DMSO. Samples of 600 μL were withdrawn from the incubations at the pre-determined time points of 0.25, 5, 15, 30 and 60 minutes after ensuring homogeneity of hepatocyte suspensions. The withdrawn volume was added to 1 mL Nunc cryo tubes on wet ice containing 60 μL of ice cold ascorbic acid (100 mg/mL) and 30 μL of ice cold 100 mM saccharic acid 1.4-lactone in 0.5 M citric acid. The tubes were mixed and 35 μL of a solution of ice cold 20% formic acid was added. The tubes were mixed thoroughly and stored at −80° C. awaiting analysis. Analysis method and Instrumentation used for analysis of (I) from dosing (Id-ia), (Id-ib), (Id-iia) and (Id-iib), were the one described in Examples 4 and 5 below in the section “Instrumentation used for analysis of compound (I) from dosing of compounds (Ic), (Id-ia), (Id-ib), (Id-iia), (Id-iib), (Id-iab) and (Id-iiab).”
(§3) Analysis method and Instrumentation used for analysis of (I) from dosing (Id-iab) and (Id-iiab) consisted of mixing equal aliquots of the samples and precipitation solution (acetonitrile (MeCN) with 10% methanol (MeOH) and 1% formic acid), followed by centrifugation at 4° C. at 16000 g for 10 minutes. Supernatants were collected and analysed by LC-MS/MS. Mass spectrometer: Waters Acquity—Waters Xevo TQ-MS. Analytical column: Acquity UPLC HSS T3, 100×2.1 mm, 1.8 μm. Mobile phase A: 0.2% formic acid in water. Mobile phase B: 0.2% formic acid in acetonitrile. Gradient run from 95/5% to 60/40 in 5 min. Flow rate 0.3 mL/min. MRM monitoring of (I) in the study samples and in the analytical standards.

[2] = PK experiments in rats: plasma compound (I) after oral dosing of prodrugs; type: in vivo, Han Wistar rats; conditions: Wistar rats, FIG. 2, doses equal to 287 μg/kg of compound (I)
Method: Plasma was placed on water-ice following collection. Final storage at approximately −70° C.
Mobile phase B: Acetonitrile. […] Flow rate 0.5 mL/min.
The rats had unrestricted access to the diet.
Mobile phase B: Acetonitrile+0.2% formic acid. […] Flow rate 0.3 mL/min.
Han Wistar rats were supplied by Envigo, UK. […] The rats received a standard laboratory diet Teklad 2014C. The rats had unrestricted access to the diet.

[3] = Conversion to compound (I) in fresh human blood; type: in vitro ADME; conditions: fresh blood 37° C., 1 μg/mL, 0-60 minutes, FIG. 8b
Method: as §1

hepatocytes from rat = test: Conversion to compound (I) in rat hepatocytes; type: in vitro ADME; conditions: 1 μg/mL, 37° C., 0.25-60 minutes, FIG. 7a
Method: as §2, §3

human D1 receptor = human D1 receptor (Homo sapiens (Human), UniProt P21728); test: Dopamine D1 receptor agonism, HTRF cAMP assay; type: cell-based; conditions: HEK-293 cells expressing human D1 receptor, cAMP
human D1 receptor, sequence (P21728 whole entry): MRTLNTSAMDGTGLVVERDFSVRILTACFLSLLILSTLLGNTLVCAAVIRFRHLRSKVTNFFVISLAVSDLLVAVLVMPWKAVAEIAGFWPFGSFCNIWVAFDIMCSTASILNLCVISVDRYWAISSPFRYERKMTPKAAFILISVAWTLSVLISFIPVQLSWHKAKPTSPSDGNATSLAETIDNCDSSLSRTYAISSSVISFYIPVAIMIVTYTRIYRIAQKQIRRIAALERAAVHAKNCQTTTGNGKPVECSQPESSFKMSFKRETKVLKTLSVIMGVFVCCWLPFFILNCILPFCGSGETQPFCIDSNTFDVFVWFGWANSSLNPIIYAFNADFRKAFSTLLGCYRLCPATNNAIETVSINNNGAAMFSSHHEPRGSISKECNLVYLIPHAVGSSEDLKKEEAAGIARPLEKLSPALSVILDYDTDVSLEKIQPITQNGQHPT
Method: Dopamine D1 receptor agonism was measured using a HTRF cAMP from CisBio using the protocol developed by HD Biosciences (China). Briefly, the assay is a homogeneous time resolved-fluorescence resonance energy transfer (HTRF) assay that measures production of cAMP by cells in a competitive immunoassay between native cAMP produced by cells and cAMP-labeled with XL-665. A cryptate-labeled anti-cAMP antibody visualizes the tracer. The assay was performed in accordance with instructions from manufacturer.
Test compounds were added to wells of microplates (384 format). HEK-293 cells expressing the human D1 receptor were plated at 1000 cells/well and incubated 30 min at room temperature. cAMP-d2 tracer was added to wells and followed by addition of Anti-cAMP antibody-cryptate preparation and incubated for 1 h at room temperature in dark. HTRF cAMP was measured by excitation of the donor with 337 nm laser (the “TRF light unit”) and subsequent (delay time 100 microseconds) measurement of cryptate and d2 emission at 615 nm and 665 nm over a time window of 200 microseconds with a 2000 microseconds time window between repeats/100 flashes). HRTF measurements were performed on an Envision microplate reader (PerkinElmer). The HTRF signal was calculated as the emission-ratio at 665 nm over 615 nm. The HTRF ratio readout for test compounds was normalized to 0% and 100% stimulation using control wells with DMSO-solvent or 30 uM dopamine. Test compound potency (EC50) was estimated by nonlinear regression using the sigmoidal dose-response (variable slope) using Xlfit 4 (IDBS, Guildford, Surrey, UK, model 205). y=(A+((B−A)/(1+((C/x)^D)))) where y is the normalized HTRF ratio measurement for a given concentration of test compound, x is the concentration of test compound, A is the estimated efficacy at infinite compound dilution, and B is the maximal efficacy. C is the EC50 value and D is the Hill slope coefficient. EC50 estimates were obtained from an independent experiment and the logarithmic average was calculated. Dopamine D2 Receptor Agonism

human 5-HT2B receptor = human 5-HT2B receptor (Homo sapiens (Human), UniProt P41595); test: 5-HT2B agonist activity assay (IP1 production, HTRF); type: cell-based
human 5-HT2B receptor, sequence (P41595 whole entry): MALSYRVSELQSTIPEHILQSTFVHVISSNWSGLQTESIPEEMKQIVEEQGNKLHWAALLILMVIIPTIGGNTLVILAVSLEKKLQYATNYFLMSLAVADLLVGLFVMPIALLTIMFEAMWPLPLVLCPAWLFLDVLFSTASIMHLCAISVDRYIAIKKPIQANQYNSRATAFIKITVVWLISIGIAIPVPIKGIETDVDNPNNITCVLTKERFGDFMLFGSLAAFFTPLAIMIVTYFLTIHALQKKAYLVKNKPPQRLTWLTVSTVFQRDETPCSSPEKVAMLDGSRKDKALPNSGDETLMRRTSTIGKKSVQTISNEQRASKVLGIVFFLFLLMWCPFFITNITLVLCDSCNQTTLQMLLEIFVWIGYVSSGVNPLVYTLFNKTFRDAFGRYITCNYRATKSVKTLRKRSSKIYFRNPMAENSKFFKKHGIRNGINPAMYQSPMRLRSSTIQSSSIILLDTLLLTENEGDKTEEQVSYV
Method: Evaluation of the agonist activity of compounds (I), (Ia) and (Ib) at the human 5-HT2B receptor was performed by Eurofins/Cerep (France) measuring the compound effects on inositol monophosphate (IP1) production using the HTRF detection method. Briefly, the human 5-HT2B receptor was expressed in transfected CHO cells. The cells were suspended in a buffer containing 10 mM Hepes/NaOH (pH 7.4), 4.2 mM KCl, 146 mM NaCl, 1 mM CaCl2, 0.5 mM MgCl2, 5.5 mM glucose and 50 mM LiCl, then distributed in microplates at a density of 4100 cells/well and incubated for 30 min at 37° C. in the presence of buffer (basal control), test compound or reference agonist. For stimulated control measurement, separate assay wells contained 1 μM 5-HT. Following incubation, the cells were lysed and the fluorescence acceptor (fluorophen D2-labeled IP1) and fluorescence donor (anti-IP1 antibody labeled with europium cryptate) were added. After 60 min at room temperature, the fluorescence transfer was measured at lambda(Ex) 337 nm and lambda(Em) 620 and 665 nm using a microplate reader (Rubystar, BMG). The IP1 concentration was determined by dividing the signal measured at 665 nm by that measured at 620 nm (ratio). The results were expressed as a percent of the control response to 1 μM 5-HT. The standard reference agonist was 5-HT, which was tested in each experiment at several concentrations to generate a concentration-response curve from which its EC50 value is calculated as described above for dopamine functional assays.

human D2 receptor = human D2 receptor (Homo sapiens (Human), UniProt P14416); test: Dopamine D2 receptor agonism, calcium mobilization assay; type: cell-based
human D2 receptor, sequence (P14416 whole entry): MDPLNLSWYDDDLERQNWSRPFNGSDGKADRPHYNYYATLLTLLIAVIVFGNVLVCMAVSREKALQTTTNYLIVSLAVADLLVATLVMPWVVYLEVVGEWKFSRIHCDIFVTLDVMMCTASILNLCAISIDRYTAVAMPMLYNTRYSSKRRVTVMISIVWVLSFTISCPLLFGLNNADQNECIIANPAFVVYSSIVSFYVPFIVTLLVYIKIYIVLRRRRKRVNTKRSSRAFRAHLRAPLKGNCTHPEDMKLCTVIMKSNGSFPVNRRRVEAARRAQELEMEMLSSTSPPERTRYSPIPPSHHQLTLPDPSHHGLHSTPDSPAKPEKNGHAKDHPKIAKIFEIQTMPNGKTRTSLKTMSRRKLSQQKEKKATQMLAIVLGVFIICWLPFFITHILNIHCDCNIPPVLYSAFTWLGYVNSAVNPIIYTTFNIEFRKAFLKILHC
Method: Dopamine D2 receptor agonism was measured using a calcium mobilization assay protocol developed by HD Biosciences (China). Briefly, HEK293/G15 cells expressing human D2 receptor were plated at a density of 15000 cells/well in clear-bottomed, Matrigel-coated 384-well plates and grown for 24 hrs at 37° C. in the presence of 5% CO2. The cells were incubated with calcium-sensitive fluorescent dye, Fluo8, for 60-90 minutes at 37° C. in the dark. Test compounds were prepared at 3-fold concentrated solution in 1×HBSS buffer with Ca^2+ and Mg^2+. Calcium Flux signal was immediately recorded after compounds were added from compound plate to cell plate at FLIPR (Molecular Devices). The fluorescence data were normalized to yield responses for no stimulation (buffer) and full stimulation (1 μM of dopamine) of 0% and 100% stimulation, respectively. Test compound potency (EC50) was estimated by nonlinear regression using the sigmoidal dose-response (variable slope) using Xlfit 4 (IDBS, Guildford, Surrey, UK, model 205). y=(A+((B−A)/(1+((C/x)^D)))) where y is the normalized ratio measurement for a given concentration of test compound, x is the concentration of test compound, A is the estimated efficacy at infinite compound dilution, and B is the maximal efficacy. C is the EC50 value and D is the Hill slope coefficient. EC50 estimates were obtained from independent experiment and the logarithmic average was calculated.

## CN1CCc2cccc3c2[C@H]1Cc1ccc(O)c(O)c1-3 [apomorphine, reference compound]
Male CD rats
  time until locomotor effect is gone: 1.5 h

## CCCN1CCC[C@@H]2Cc3c(ccc(O[C@@H]4O[C@H](C(=O)O)[C@@H](O)[C@H](O)[C@H]4O)c3O)C[C@H]21 [(Id-ib), (2S,3S,4S,5R,6S)-3,4,5-trihydroxy-6-(((4aR,10aR)-6-hydroxy-1-propyl-1,2,3,4,4a,5,10,10a-octahydrobenzo[g]quinolin-7-yl)oxy)tetrahydro-2H-pyran-2-carboxylic acid]
[1]
  conversion to compound (I) in rat blood: time dependent conversion to compound (I)
Hepatocytes from human
  conversion to compound (I) in human hepatocytes: time dependent conversion to compound (I)
[2]
  plasma profile of compound (I) after oral dosing (in words): slower absorption rate avoiding rapid peak concentrations accompanied by a sustained exposure of compound (I) in plasma
[3]
  conversion to compound (I) in human blood: time dependent conversion to compound (I)
Hepatocytes from rat
  conversion to compound (I) in rat hepatocytes: time dependent conversion to compound (I)

## CCCN1CCC[C@@H]2Cc3c(ccc4c3OCO4)C[C@H]21 [(Ib), reference compound]
Human D1 receptor
  EC50: > 1000 nM
[2]
  plasma profile of compound (I) after oral dosing (in words): early and high peak concentrations of compound (I)
Human 5-HT2B receptor; example 3
  5-HT2B agonism (in words): agonist of the 5-HT2B receptor
Human 5-HT2B receptor; read-out: 5-HT2B Emax
  Emax: 79%
Human D2 receptor; normalized to 1 μM dopamine = 100%
  Emax: 100%

## CCCN1CCC[C@@H]2Cc3c(ccc(OS(=O)(=O)O)c3O)C[C@H]21 [(Id-iib), (4aR,10aR)-6-hydroxy-1-propyl-1,2,3,4,4a,5,10,10a-octahydrobenzo[g]quinolin-7-yl hydrogen sulfate]
[1]
  conversion to compound (I) in rat blood: time dependent conversion to compound (I)
Hepatocytes from human
  conversion to compound (I) in human hepatocytes: time dependent conversion to compound (I)
[2]
  plasma profile of compound (I) after oral dosing (in words): slower absorption rate avoiding rapid peak concentrations accompanied by a sustained exposure of compound (I) in plasma
[3]
  conversion to compound (I) in human blood: time dependent conversion to compound (I)
Hepatocytes from rat
  conversion to compound (I) in rat hepatocytes: time dependent conversion to compound (I)

## CCCN1CCC[C@@H]2CC3=C(CCCC3=O)C[C@H]21 [(Ia), reference compound]
Human D1 receptor
  EC50: > 1000 nM
[2]
  plasma profile of compound (I) after oral dosing (in words): early and high peak concentrations of compound (I)
Human 5-HT2B receptor; @30 uM, percent of control response to 1 μM 5-HT
  5-HT2B agonist effect at concentration indicated: 58%
Human 5-HT2B receptor; CHO cells, IP1 production
  EC50: > 6000 nM
Human D2 receptor; HEK293/G15 cells expressing human D2 receptor, calcium flux
  EC50: > 1000 nM

## CCCN[C@H]1CCc2nc(N)sc2C1 [Pramipexole, pramipexole, reference compound]
Male CD rats; FIG. 4, (Id-ia) p.o., apomorphine 3 mg/kg s.c., pramipexole 0.3 mg/kg s.c.
  total distance travelled vs vehicle: significantly increased activity
Male CD rats
  time until locomotor effect is gone: 2.5 h

## CCCN1CCC[C@@H]2Cc3c(ccc(OC(=O)C(C)(C)C)c3OC(=O)C(C)(C)C)C[C@H]21 [(Ic), reference compound]
[2]
  plasma profile of compound (I) after oral dosing (in words): extremely low
Human 5-HT2B receptor; @10 μM
  5-HT2B effect at concentration indicated (no asterisk): −5%@10
